Experimental data as given in patent publication US20150148256A1, “BIOLUMINESCENCE IMAGING-BASED SCREENING ASSAY AND INHIBITORS OF ABCG2” (THE JOHNS HOPKINS UNIVERSITY, priority 2008, published 2015).
Counter-ions that a name gives are not always drawn. Residues, ends and D or L forms follow the SMILES beside them.

The compounds below were run against T1, ABCG2 (Homo sapiens, UniProt Q9UNQ0) (assay: Bioluminescence imaging (BLI) assay in HEK293/ABCG2/fLuc cells). Conditions: not given.
T1 sequence (Q9UNQ0 1-655): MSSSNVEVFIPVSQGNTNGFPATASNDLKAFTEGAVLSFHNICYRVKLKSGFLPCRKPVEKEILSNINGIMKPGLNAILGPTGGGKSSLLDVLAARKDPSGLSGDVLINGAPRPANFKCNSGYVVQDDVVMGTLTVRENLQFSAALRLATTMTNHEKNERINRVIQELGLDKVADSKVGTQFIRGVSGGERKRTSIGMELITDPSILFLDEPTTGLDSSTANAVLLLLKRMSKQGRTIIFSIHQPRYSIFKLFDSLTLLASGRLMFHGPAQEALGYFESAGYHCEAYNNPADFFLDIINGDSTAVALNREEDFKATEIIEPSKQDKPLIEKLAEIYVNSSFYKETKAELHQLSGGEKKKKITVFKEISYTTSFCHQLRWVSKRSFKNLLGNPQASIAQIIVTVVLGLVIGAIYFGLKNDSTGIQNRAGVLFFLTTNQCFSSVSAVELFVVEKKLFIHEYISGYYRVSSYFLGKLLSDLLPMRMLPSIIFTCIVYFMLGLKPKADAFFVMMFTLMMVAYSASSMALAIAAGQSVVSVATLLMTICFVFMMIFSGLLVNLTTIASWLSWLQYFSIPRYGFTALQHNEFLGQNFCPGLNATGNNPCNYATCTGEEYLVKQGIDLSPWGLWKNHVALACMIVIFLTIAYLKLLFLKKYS
Description: HEK293/ABCG2/fLuc cells were plated into 96-well plates at a density of 4×10^4 cells/100 μL per well and were allowed to attach overnight. The following day, 10 μL of each compound or the control solvent was transferred from a compound library in a 96-well, high-throughput format into the wells using a multichannel pipette. […] Images were taken every 5 minutes for ˜1 h. Light output from each well was quantified at the 40 min time point after initiation of imaging, and the signal-to-background (S/B) ratio of the light output from each compound divided by that from the control well was calculated. This S/B ratio serves as an indicator of the potency of ABCG2 inhibition, the mechanism by which BLI signal is enhanced.
Images were taken every 5 min for ˜1 h, and light output from each well at the 40 min time point was chosen for quantification. The SB ratio of the light output from each compound divided by that from the control well was calculated. This ratio was used as an indicator of the potency of ABCG2 inhibition, the mechanism by which BLI signal is enhanced.
The BLI signal-enhancing effect of selected ABCG2 inhibitors was evaluated within the range of 0.001 μM-100 μM, with HEK293/ABCG2/fLuc cells and 50 μg/mL D-luciferin. The data obtained at 40 min after imaging commencement were chosen arbitrarily to be plotted (FIG. 3).

SMILES | BLI signal enhancement at lower concentrations
CNc1ccc2oc(C[C@H]3O[C@@]4(CC[C@H]3C)O[C@H]([C@H](C)C(=O)c3ccc[nH]3)[C@H](C)C[C@H]4C)nc2c1C(=O)O [calcimycin] | enhance BLI signal minimally

Same assay, conditions: BLI screen, approximately 17 μM, 40 min

SMILES | BLI signal enhancement [fold]
COc1ccc(-c2cc(=O)c3c(O)cc(O)cc3o2)cc1 [acacetin] | 1.8

Same assay, conditions: Table 2; HEK293/ABCG2/fLuc cells, compound approximately 17 μM, ~50 μg/mL D-luciferin, 40 min time point

SMILES | Fold (BLI enhancement, S/B ratio over control) [fold]
C[C@]12CC[C@@H]3c4ccc(O)cc4CC[C@H]3[C@@H]1CC[C@@H]2O [13-estradiol] | 4.2
CN1[C@@H]2CC[C@H]1C[C@@H](OC(c1ccccc1)c1ccccc1)C2.CS(=O)(=O)O [benztropin Methane-] | 2.0
COc1ccc2cc3[n+](cc2c1OC)CCc1cc2c(cc1-3)OCO2.O=S(=O)([O-])O [berberine bisulfate] | 2.2
CC(=O)[C@@]1(O)CC[C@H]2[C@@H]3C=C(Cl)C4=CC(=O)[C@@H]5C[C@@H]5[C@]4(C)[C@H]3CC[C@@]21C [cyproterone] | 2.0

Same assay, conditions: Table 5; approximately 17 μM, 40 min time point

SMILES | fold (BLI enhancement), additional previously known ABCG2 inhibitors [fold]
COc1ccc(-c2cc(=O)c3c(O)cc(O)cc3o2)cc1 [acacetin] | 1.8

Same assay, conditions: human

SMILES | Fold (BLI enhancement, S/B ratio over control) [fold] | Fold (BLI enhancement), previously unknown compounds [fold]
CC[C@@]1(O)C[C@H](O[C@H]2C[C@H](N(C)C)[C@H](O[C@H]3C[C@H](O)[C@H](O[C@H]4CCC(=O)[C@H](C)O4)[C@H](C)O3)[C@H](C)O2)c2c(cc3c(c2O)C(=O)c2c(O)cccc2C3=O)[C@H]1C(=O)OC [aclarubicin] | 3.5 | –
CC[C@@]1(O)C[C@H](O[C@H]2C[C@H](N(C)C)[C@H](O)[C@H](C)O2)c2c(cc3c(c2O)C(=O)c2c(O)cccc2C3=O)[C@H]1C(=O)OC [aklavine hydrochloride] | 2.5 | –
CC(C)C[C@H]1C(=O)N2CCC[C@H]2[C@]2(O)O[C@](NC(=O)[C@@H]3C=C4c5cccc6[nH]c(Br)c(c56)C[C@H]4N(C)C3)(C(C)C)C(=O)N12 [bromocriptine mesylate] | 2.1 | –
CN1C[C@H](C(=O)N[C@]2(C)O[C@@]3(O)[C@@H]4CCCN4C(=O)[C@H](Cc4ccccc4)N3C2=O)C[C@@H]2c3cccc4[nH]cc(c34)C[C@H]21 [dihydroergotamine mesylate] | 9.6 | 9.6

Same assay, conditions: human, 40 min, 17 μM

SMILES | Fold (BLI enhancement, S/B ratio over control) [fold] | fold (BLI enhancement), additional previously known ABCG2 inhibitors [fold] | Fold (BLI enhancement), previously unknown compounds [fold] | Fold (BLI enhancement), known compounds [fold]
CCCn1c(=O)c2[nH]c(C3CCCC3)nc2n(CCC)c1=O [1,3-dipropyl-8-cyclopentylxanthine] | 4.3 | – | – | –
O=c1cc(-c2ccccc2)oc2cc(O)c(O)cc12 [6,7-dihydroxyflavone] | 2.7 | 2.7 | – | –
Cn1c(=O)c2[nH]c(C3CCCC3)nc2n(C)c1=O [8-cyclopentyltheophylline] | 2.9 | – | – | –
CCCCC(CC)CNC(=N)NC(=N)NCCCCCCNC(=N)NC(=N)NCC(CC)CCCC (stereo not drawn) [alexidine hydrochloride] | 3.1 | – | – | –
Nc1c2ccccc2nc2ccccc12 [aminacrine] | 2.9 | – | – | –
CCN(CC)Cc1cc(Nc2ccnc3cc(Cl)ccc23)ccc1O [amodiaquin] | 3.8 | – | – | –
COc1ccc(CCN2CCC(Nc3nc4ccccc4n3Cc3ccc(F)cc3)CC2)cc1 [astemizole] | 2.8 | – | – | –
O=C1C(O)=C([C@H]2CC[C@H](c3ccc(Cl)cc3)CC2)C(=O)c2ccccc21 [atovaquone] | 3.5 | – | – | –
CN1CCCC(n2nc(Cc3ccc(Cl)cc3)c3ccccc3c2=O)CC1 (stereo not drawn) [azelastine hydrochloride] | 2.4 | – | – | –
CCC(=O)OCC(=O)[C@@]1(OC(=O)CC)[C@@H](C)C[C@H]2[C@@H]3CCC4=CC(=O)C=C[C@]4(C)[C@@]3(Cl)[C@@H](O)C[C@@]21C [beclomethasone dipropionate] | 3.2 | – | – | –
CCCCC(=O)O[C@]1(C(=O)CO)[C@@H](C)C[C@H]2[C@@H]3CCC4=CC(=O)C=C[C@]4(C)[C@@]3(F)[C@@H](O)C[C@@]21C [betamethasone valerate] | 2.6 | – | – | –
Brc1c(NC2=NCCN2)ccc2nccnc12 [brimonidine] | 3.4 | – | – | –
C=C1CC[C@H](O)C/C1=C/C=C1\CCC[C@]2(C)[C@@H]([C@H](C)CCCC(C)(C)O)CC[C@@H]12 [calcifediol] | 3.2 | – | – | –
COc1ccccc1OCCNCC(O)COc1cccc2[nH]c3ccccc3c12 (stereo not drawn) [carvedilol] | 10.0 | – | – | –
CC(C)(O/N=C(\C(=O)N[C@@H]1C(=O)N2C(C(=O)[O-])=C(C[n+]3ccccc3)CS[C@H]12)c1csc(N)n1)C(=O)O [ceftazidime] | 2.5 | – | – | –
Cc1ccc(-c2cc(C(F)(F)F)nn2-c2ccc(S(N)(=O)=O)cc2)cc1 [celecoxib] | 2.2 | – | – | –
COc1ccc2cc1Oc1ccc(cc1)C[C@H]1c3c(cc4c(c3Oc3cc5c(cc3OC)CCN(C)[C@@H]5C2)OCO4)CCN1C [cepharanthine] | 2.1 | – | – | –
Cc1cc(O)cc(C)c1Cl [chloroxylenol] | 2.4 | – | – | –
O=c1cc(-c2ccccc2)oc2cc(O)cc(O)c12 [chrysin] | 2.3 | 2.3 | – | –
O=C1CCc2cc(OCCCCc3nnnn3C3CCCCC3)ccc2N1 [cilostazol] | 3.8 | – | – | –
C=CC1=C(C(=O)O)N2C(=O)[C@@H](NC(=O)/C(=N\OCC(=O)O)c3csc(N)n3)[C@H]2SC1 [citropen] | 4.3 | – | – | –
COc1cc(N)c(Cl)cc1C(=O)NC1CCN(Cc2ccccc2)CC1 [clebopride] | 6.7 | – | 6.7 | –
CCC(=O)O[C@]1(C(=O)CCl)[C@@H](C)C[C@H]2[C@@H]3CCC4=CC(=O)C=C[C@]4(C)[C@@]3(F)[C@@H](O)C[C@@]21C [clobetasol propionate] | 3.3 | – | – | –
COc1cc(/C=C/C(=O)CC(=O)/C=C/c2ccc(O)c(OC)c2)ccc1O [curcumin] | 6.3 | – | – | 6.3
NC1(C(=O)NCC(=O)O)CCCC1 [cycloleucylglycine] (HELM PEPTIDE1{[NC1(C(=O)[*:2])CCCC1].G}$$$$V2.0) | 2.5 | – | – | –
CC(=O)OCC(=O)[C@@]1(O)[C@H](C)C[C@H]2[C@@H]3CCC4=CC(=O)C=C[C@]4(C)[C@@]3(F)[C@@H](O)C[C@@]21C [dexamethasone acetate] | 2.2 | – | – | –
N#CC(c1ccc(Cl)cc1)c1c(Cl)cc(-n2ncc(=O)[nH]c2=O)cc1Cl (stereo not drawn) [diclazuril] | 2.4 | – | – | –
CCCC(=O)O[C@]1(C(=O)COC(C)=O)CC[C@H]2[C@@H]3C[C@H](F)C4=CC(=O)C=C[C@]4(C)[C@@]3(F)[C@@H](O)C[C@@]21C [difluprednate] | 2.0 | – | – | –
O=C(Nc1ccccc1)OCC(CN1CCCCC1)OC(=O)Nc1ccccc1 (stereo not drawn) [diperodon hydrochloride] | 2.6 | – | – | –
OCCN(CCO)c1nc(N2CCCCC2)c2nc(N(CCO)CCO)nc(N3CCCCC3)c2n1 [dipyridamole] | 7.1 | 7.1 | – | 7.1
